We go through 16 molecules from PubChem BioAssay (NCI).

Test in all cases: NCI anticancer screen, dose series, 48 h
Assay [1] relates to CAKI-1 renal.
The test system of assay [2] is EKVX NSCLC.
Assay [3] deals with M14 melanoma.
The subject of assay [4] is NCI-H23 lung.
In assay [5] the test system is NCI-H460 lung.
The test system of assay [6] is NCI-H522 lung.
Assay [7] has as its system NCI/ADR-RES ovarian.
Assay [8] has as its system SF-539 CNS.
Assay [9] concerns SK-MEL-2 melanoma.
Assay [10] deals with TK-10 renal.

Molecules are shown by their SMILES.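 Method: 48-hour compound exposure of cells in 96-well plates, five concentrations, linear interpolation of endpoints. GI50 is the concentration that inhibits growth by half. TGI is the concentration that stops growth completely.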

In the case of `Cc1cnc(CNC(=O)c2c(=O)c3ccc(N4CCCN(C)CC4)nc3n3c2sc2ccccc23)cn1`, the GI50 is 2.49 µM in [1]; 9.14 µM in [2]; 6.49 µM in assay [3]; 0.922 µM in assay [4]; 0.162 µM in [5]; 5.94 µM in assay [6]. Also, the GI50 is 1.18 µM in assay [7], 3.76 µM in [8], 12.5 µM in assay [9] and 8.94 µM in [10]. Moreover, the TGI was 18 µM in [1]; 23.2 µM in [2]; 23 µM in assay [3]; 6.1 µM in [4]; 2.14 µM in [5]; 27.2 µM in assay [6]. The TGI in [7] worked out at 30.6 µM; in [8] it was 8.51 µM; in assay [9] it was 27 µM; in assay [10], 23 µM.
Consider `COc1cccc(-c2cc3c4c(nc5ccccc53)C(=O)c3cccnc3-c4n2)c1`, for which the GI50 in assay [1] was 3.36 µM; in assay [2], 3.98 µM; in assay [3] it was 0.863 µM; in assay [4], 1.47 µM; in [5], 1.07 µM; in assay [6], 0.429 µM. Besides, the GI50 is 2.22 µM in assay [7], 3.28 µM in assay [8], 1.18 µM in assay [9] and 5.03 µM in assay [10]. For the same molecule, the TGI in assay [1] came to 11.5 µM; in assay [2], 14.2 µM; in assay [3] it was 2.36 µM; in assay [4], 4.28 µM; in assay [6] it was 2.01 µM; in [7] it was 7.92 µM. The values for the TGI in [8], in [9] and in assay [10] were 10.3 µM, 4.16 µM and above 64.8 µM, respectively.
Regarding `COc1ccc(/C=C(\C(=O)NCc2cccnc2)S(=O)(=O)c2ccccc2)cc1OC`, the GI50 in assay [1] was 3.29 µM; in assay [2], 3.13 µM; in assay [3], 2.48 µM; in [4], 3.01 µM; in assay [5] it was 2.4 µM; in assay [6] it was 1.7 µM. Besides, the GI50 was 18.2 µM in [7], 2.49 µM in [8], 3.01 µM in assay [9] and 5.57 µM in assay [10]. Besides, the TGI came to 11.7 µM in [1]; 12.2 µM in assay [2]; 8.59 µM in assay [3]; 10.6 µM in assay [4]; 6.67 µM in assay [5]; 4.61 µM in assay [6]. The TGI in assay [7] was above 100 µM; in assay [8], 6.74 µM; in assay [9], 12.7 µM; in assay [10], 18.1 µM.
Regarding `CC[C@H](CO)Nc1nc(NCc2ccccc2)c2ncn(C(C)C)c2n1`, the GI50 in assay [1] is 10.9 µM; in assay [3], 31.6 µM; in assay [7] it was 10.9 µM; in [10] it was 44.9 µM. The TGI in [1] was above 100 µM; in [2], 44.1 µM; in assay [3] it was above 100 µM; in assay [4] it was 41.9 µM; in [5], above 100 µM; in assay [6], 57.8 µM. The TGI in assay [7] is 56.6 µM; in assay [8], 53.6 µM; in assay [9] it was 44.6 µM; in assay [10], above 100 µM.
Turning to `COC(=N)c1c(N)[n+]([O-])c2ccc(F)cc2[n+]1[O-]`, the GI50 is above 100 µM in assay [1]; 99.1 µM in assay [2]; above 100 µM in assay [3]; above 100 µM in assay [4]; 58.1 µM in assay [5]; 54.7 µM in assay [6]. The GI50 in [7], in assay [8], in [9] and in [10] was above 100 µM each time. Further, the TGI in assay [1], in [2], in [3], in [4], in assay [5] and in assay [6] was above 100 µM each time. Further, the TGI in [7], in assay [8], in [9] and in assay [10] was above 100 µM in each case.
As for `O=[N+]([O-])c1ccc(N2CCC(CCCC3CCN(c4ccc([N+](=O)[O-])cc4[N+](=O)[O-])CC3)CC2)c([N+](=O)[O-])c1`, the TGI in assay [1] was determined as 41.1 µM; in [2] it was 34.3 µM; in [3], 26.7 µM; in assay [4], 54.3 µM; in assay [5], 28.8 µM; in assay [6] it was 42.8 µM. Also, the TGI in assay [7] turned out to be 57.7 µM; in assay [8], 36.7 µM; in [9] it was 32 µM; in assay [10], 32.7 µM.
Turning to `COC(=O)Nc1nc2ccc(Oc3cccc(NC(=O)Nc4cc(C(F)(F)F)ccc4F)c3)cc2[nH]1`, the GI50 in assay [1] was 14.3 µM; in assay [2] it was above 19.5 µM; in assay [3], 7.67 µM; in [4] it was 11.3 µM; in [5] it was 11.4 µM; in assay [6], 5.73 µM. The GI50 in assay [7] was 24.8 µM; in assay [8], above 21.6 µM; in assay [9] it was 5.28 µM; in [10] it was above 25 µM. Further, the TGI is above 25 µM in [1]; above 25 µM in [2]; above 25 µM in assay [3]; above 25 µM in [4]; above 25 µM in assay [5]; 20.6 µM in assay [6]. Besides, the TGI in assay [7] is above 25 µM; in [8], above 25 µM; in [9] it was 19.5 µM; in assay [10], above 25 µM.
Regarding `COc1ccc(N(/C=C/C(=O)C(F)(F)F)CC(=O)c2ccc(F)cc2)cc1`, the GI50 in [1] is 21.7 µM; in assay [2], 25.4 µM; in [3], 20.6 µM; in assay [4] it was 30.1 µM; in assay [5] it was 23.5 µM; in assay [6], 18.7 µM. The GI50 in assay [7] was 31.2 µM; in assay [8], 21.4 µM; in [9], 31.6 µM; in [10], 42.1 µM. The TGI in [1] is 72.1 µM; in [2], above 100 µM; in [3] it was 56.7 µM; in [4], 84.9 µM; in assay [5] it was 50 µM; in assay [6] it was 36.9 µM. The TGI in assay [7] stood at 87.4 µM; in assay [8], 52 µM; in assay [9] it was 67.2 µM; in assay [10], 96.4 µM.
Take `O=C1C(SCCO)=C(SCCO)C(=O)N1c1ccc(-c2ccccc2)cc1`: the GI50 was 0.644 µM in assay [1]; 9.5 µM in assay [2]; 2.31 µM in assay [3]; 4.38 µM in [4]; 9.75 µM in assay [5]; 7.51 µM in [6]. Further, the GI50 is 3.54 µM in [7], 1.78 µM in assay [8], 0.259 µM in [9] and 1.49 µM in [10]. Also, the TGI in assay [1] is 1.79 µM; in assay [2], 23.3 µM; in assay [3] it was 7.64 µM; in assay [4], 13.3 µM; in assay [5], 34.9 µM; in assay [6], 22.6 µM. For the same molecule, the TGI in assay [7] came to 16.2 µM; in assay [8] it was 3.92 µM; in assay [9], 1.69 µM; in [10], 3.18 µM.
For `Cc1nn(-c2ccc([N+](=O)[O-])cc2)c2ncnc(N/N=C/c3ccccc3O)c12`, the GI50 in assay [1] was 0.496 µM; in [2], 2.41 µM; in [3], 0.299 µM; in assay [4], 0.864 µM; in assay [5], 0.34 µM; in [6], 0.365 µM. Besides, the GI50 in assay [7] is 0.337 µM; in [8], 0.424 µM; in assay [9], 1.57 µM; in assay [10] it was 0.942 µM. For the same molecule, the TGI was 1.82 µM in assay [1]; above 100 µM in assay [2]; 2.2 µM in assay [3]; 3.76 µM in assay [4]; 1.46 µM in [5]; 7.56 µM in assay [6]. Moreover, the TGI in assay [7] was 3.66 µM; in assay [8], 1.77 µM; in assay [9], above 45 µM; in assay [10], 7.78 µM.
`OCCn1cnc2c(SCc3ccccc3)ncnc21`: the TGI in assay [1], in assay [2], in assay [3], in assay [4], in [5] and in [6] was above 100 µM throughout. For the same molecule, the TGI in [7], in assay [8], in assay [9] and in assay [10] was above 100 µM each time.
With `C=C1c2ccoc2C[C@H]2[C@H]1CC[C@@]1(O)[C@@](C)(C(=O)OC)CCC[C@]21C`, the GI50 was 50.2 µM in assay [1]; 37 µM in assay [2]; 29.3 µM in assay [3]; 44.4 µM in assay [4]; 18 µM in assay [5]; 17.5 µM in assay [6]. The GI50 in assay [7] was 42.5 µM; in [8], 69.3 µM; in [9], 19 µM; in assay [10], above 100 µM. The TGI was above 100 µM in [1]; above 100 µM in assay [2]; 82.6 µM in [3]; above 100 µM in [4]; 49.9 µM in assay [5]; 54 µM in assay [6]. For the same molecule, the TGI in [7] was above 100 µM; in [8], above 100 µM; in [9] it was 42.2 µM; in assay [10], above 100 µM.
With `CCOC(=O)C1CCCCN1C(=O)c1ccc(Nc2cnc3cc(C(F)(F)F)ccc3n2)cc1` (configuration not stated), the GI50 in assay [1] is 18 µM; in [2], 36 µM; in assay [3], 14.9 µM; in assay [4], 14.7 µM; in assay [5] it was 13.3 µM; in assay [6], 30.4 µM. For the same molecule, the GI50 in [7] was 14.1 µM; in assay [8], 15.8 µM; in [9], 23.2 µM; in [10] it was 13.3 µM. Moreover, the TGI in assay [1] was 33.9 µM; in assay [2], above 100 µM; in assay [3], 29 µM; in assay [4] it was 28.6 µM; in [5] it was 30.4 µM; in assay [6], above 100 µM. Besides, the TGI in assay [7] amounted to 29.2 µM; in assay [8] it was 37.1 µM; in assay [9], 67.3 µM; in assay [10], 28 µM.
In the case of `O1[As]2O[As]3O[As]1O[As](O2)O3`, the GI50 in [1] was 0.567 µM; in [2], 1.54 µM; in assay [3] it was 1.46 µM; in assay [4], 0.733 µM; in assay [5], 2.03 µM; in assay [6] it was 0.256 µM. Further, the GI50 is 1.43 µM in assay [7], 0.347 µM in assay [8], 1.84 µM in assay [9] and 2.31 µM in [10]. Besides, the TGI stood at 3.13 µM in [1]; 7.12 µM in assay [2]; 4.21 µM in [3]; 4.98 µM in assay [4]; 1.03 µM in [6]; 5.11 µM in assay [7]. Further, the TGI in [8] turned out to be 1.71 µM; in assay [9], 16.7 µM; in assay [10] it was 9.5 µM.
On to `O=S(=O)(c1cccc2c(I)cccc12)N1CCCNCC1`, for which the GI50 in [1] is 19.2 µM; in assay [2], 19.8 µM; in assay [3], 19.8 µM; in [4], 17 µM; in assay [5] it was 33.2 µM; in assay [6], 14.8 µM. The GI50 in [7] was 20.2 µM; in assay [8], 15.7 µM; in assay [9] it was 16.7 µM; in assay [10], 12.8 µM. Also, the TGI is 37.8 µM in [1]; 39.7 µM in assay [2]; 39.2 µM in [3]; 34 µM in assay [4]; above 100 µM in assay [5]; 30.3 µM in assay [6]. The TGI in [7] was 43.5 µM; in assay [8], 32.8 µM; in assay [9], 33.6 µM; in [10] it was 28 µM.
`Cc1ccc(-c2nc3nc(-c4ccccc4)nc(N4CCNCC4)c3o2)cc1`: the GI50 in assay [1] was 1.53 µM; in assay [2], 1.74 µM; in [3], 1.77 µM; in [4], 1.8 µM; in [5] it was 0.226 µM; in [6], 0.745 µM. Also, the GI50 in assay [7] is 0.776 µM; in assay [8], 0.703 µM; in assay [9] it was 1.86 µM; in assay [10], 0.747 µM. Also, the TGI was 2.95 µM in assay [1]; 3.24 µM in [2]; 3.25 µM in assay [3]; 3.53 µM in assay [4]; 0.503 µM in assay [5]; 2.26 µM in [6]. Further, the TGI in [7] turned out to be 2.21 µM; in assay [8], 1.85 µM; in assay [9], 3.64 µM; in assay [10], 1.71 µM.
